The numbers were not newly measured in US20070065414A1, “Enhanced delivery of cells” (Boston Scientific Scimed, Inc., priority 2005, published 2007), which cites them from elsewhere.

For this data set the following is noted: general statement, no experiment described.

As to `Nc1ncnc2c1ncn2[C@@H]1O[C@H](CO)[C@@H](O)[C@H]1O` [Adenosine, adenosine], the blood pool half-life entry is listed as “only a few seconds”.
